The target in test [1] is Sodium-dependent dopamine transporter (Homo sapiens, UniProt Q01959).
Test [2] has as its target cGMP-inhibited 3',5'-cyclic phosphodiesterase 3A (Homo sapiens, UniProt Q14432). Format: functional.
In test [3] the target is 5-hydroxytryptamine receptor 2B (Homo sapiens, UniProt P41595). Format: functional, cell-based.
For test [4], the target named is Prothrombin (Homo sapiens, UniProt P00734). The format is functional.
In test [5] the target is Sodium-dependent noradrenaline transporter (Homo sapiens, UniProt P23975).
Test [6] addresses Acetylcholinesterase (Homo sapiens, UniProt P22303). The format is functional.
The target of test [7] is D(3) dopamine receptor (Homo sapiens, UniProt P35462).
The target of test [8] is Prostaglandin G/H synthase 1 (Homo sapiens, UniProt P23219). Format: functional.
For test [9], the target named is Voltage-gated inwardly rectifying potassium channel KCNH2 (Homo sapiens, UniProt Q12809). The format is functional. The conditions noted are these: read-out: AC50.
Test [10] addresses T1, Amine oxidase [flavin-containing] A (Homo sapiens, UniProt P21397).
T1 sequence (P21397 whole entry): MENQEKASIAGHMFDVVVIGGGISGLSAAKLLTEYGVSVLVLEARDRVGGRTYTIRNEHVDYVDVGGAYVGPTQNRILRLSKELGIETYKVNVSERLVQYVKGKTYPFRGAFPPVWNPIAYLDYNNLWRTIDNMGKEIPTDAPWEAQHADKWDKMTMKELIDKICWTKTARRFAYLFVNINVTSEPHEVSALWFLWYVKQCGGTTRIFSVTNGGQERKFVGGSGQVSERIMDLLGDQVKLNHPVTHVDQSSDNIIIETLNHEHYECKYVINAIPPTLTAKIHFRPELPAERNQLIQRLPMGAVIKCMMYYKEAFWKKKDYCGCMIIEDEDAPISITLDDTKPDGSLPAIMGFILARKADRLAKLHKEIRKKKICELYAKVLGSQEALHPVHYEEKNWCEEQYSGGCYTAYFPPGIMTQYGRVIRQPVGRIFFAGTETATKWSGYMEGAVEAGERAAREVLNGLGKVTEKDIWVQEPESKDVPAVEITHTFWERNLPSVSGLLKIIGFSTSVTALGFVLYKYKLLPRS
The format is functional.

Test [11] concerns the target T2, 5-hydroxytryptamine receptor 1A (Homo sapiens, UniProt P08908).
T2 sequence (P08908 whole entry): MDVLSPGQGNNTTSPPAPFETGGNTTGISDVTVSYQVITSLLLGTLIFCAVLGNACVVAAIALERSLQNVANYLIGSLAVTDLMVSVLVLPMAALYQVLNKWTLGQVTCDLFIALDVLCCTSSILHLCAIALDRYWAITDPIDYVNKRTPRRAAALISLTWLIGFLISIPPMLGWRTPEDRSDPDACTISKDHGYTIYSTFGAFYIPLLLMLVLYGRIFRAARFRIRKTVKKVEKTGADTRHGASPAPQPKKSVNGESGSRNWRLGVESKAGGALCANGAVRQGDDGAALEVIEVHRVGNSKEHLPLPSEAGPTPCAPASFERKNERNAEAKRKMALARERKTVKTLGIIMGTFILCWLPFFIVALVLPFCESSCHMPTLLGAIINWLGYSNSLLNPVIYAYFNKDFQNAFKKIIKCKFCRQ

In test [12] the target is Vascular endothelial growth factor receptor 2 (Homo sapiens, UniProt P35968). The format is functional.
The target in test [13] is T3, Thromboxane A2 receptor (Homo sapiens, UniProt P21731).
T3 sequence (P21731 whole entry): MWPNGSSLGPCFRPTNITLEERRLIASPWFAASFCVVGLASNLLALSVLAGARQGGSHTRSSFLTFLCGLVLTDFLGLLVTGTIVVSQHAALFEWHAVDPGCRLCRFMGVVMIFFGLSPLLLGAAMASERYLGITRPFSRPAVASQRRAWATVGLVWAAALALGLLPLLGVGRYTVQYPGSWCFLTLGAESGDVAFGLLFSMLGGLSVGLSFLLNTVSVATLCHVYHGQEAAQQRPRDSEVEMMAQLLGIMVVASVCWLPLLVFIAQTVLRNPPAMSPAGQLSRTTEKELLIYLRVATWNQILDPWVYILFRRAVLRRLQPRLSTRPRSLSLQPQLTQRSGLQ
The format is functional, cell-based.

Test [14] concerns the target T4, Adenosine receptor A3 (Homo sapiens, UniProt P0DMS8).
T4 sequence (P0DMS8 whole entry): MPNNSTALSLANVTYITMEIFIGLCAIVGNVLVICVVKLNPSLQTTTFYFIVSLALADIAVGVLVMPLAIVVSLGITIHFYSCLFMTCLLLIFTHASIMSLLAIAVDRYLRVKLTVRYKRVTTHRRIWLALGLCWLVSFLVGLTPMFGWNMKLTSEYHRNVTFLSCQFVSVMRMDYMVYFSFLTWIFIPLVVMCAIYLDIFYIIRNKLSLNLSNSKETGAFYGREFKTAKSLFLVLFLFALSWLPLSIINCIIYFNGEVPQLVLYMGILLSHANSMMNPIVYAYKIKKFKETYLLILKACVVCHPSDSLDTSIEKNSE

Test [15] has as its target T5, Estrogen receptor (Homo sapiens, UniProt P03372).
T5 sequence (P03372 whole entry): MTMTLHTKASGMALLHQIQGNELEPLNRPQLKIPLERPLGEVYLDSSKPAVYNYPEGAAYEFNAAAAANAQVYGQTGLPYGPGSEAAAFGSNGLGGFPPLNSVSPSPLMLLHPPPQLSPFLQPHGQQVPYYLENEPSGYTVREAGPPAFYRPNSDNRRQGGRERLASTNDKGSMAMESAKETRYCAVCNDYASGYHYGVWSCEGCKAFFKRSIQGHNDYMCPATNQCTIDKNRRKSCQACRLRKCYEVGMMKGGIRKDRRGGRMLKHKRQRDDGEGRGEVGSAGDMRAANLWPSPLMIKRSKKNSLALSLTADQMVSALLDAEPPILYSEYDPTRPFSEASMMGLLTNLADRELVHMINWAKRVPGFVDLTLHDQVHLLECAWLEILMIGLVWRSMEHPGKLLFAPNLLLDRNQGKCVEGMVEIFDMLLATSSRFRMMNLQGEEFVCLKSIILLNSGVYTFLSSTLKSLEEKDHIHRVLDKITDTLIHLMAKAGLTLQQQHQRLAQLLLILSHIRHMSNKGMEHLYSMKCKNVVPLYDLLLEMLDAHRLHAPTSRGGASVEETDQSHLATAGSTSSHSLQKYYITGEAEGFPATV

The term AC50 denotes the concentration at which the activity in the assay is half-maximal.

Structures are written as SMILES. Some results are limits rather than exact numbers.
Also: assay procedure not described here.

Sequence of D(3) dopamine receptor (P35462 whole entry): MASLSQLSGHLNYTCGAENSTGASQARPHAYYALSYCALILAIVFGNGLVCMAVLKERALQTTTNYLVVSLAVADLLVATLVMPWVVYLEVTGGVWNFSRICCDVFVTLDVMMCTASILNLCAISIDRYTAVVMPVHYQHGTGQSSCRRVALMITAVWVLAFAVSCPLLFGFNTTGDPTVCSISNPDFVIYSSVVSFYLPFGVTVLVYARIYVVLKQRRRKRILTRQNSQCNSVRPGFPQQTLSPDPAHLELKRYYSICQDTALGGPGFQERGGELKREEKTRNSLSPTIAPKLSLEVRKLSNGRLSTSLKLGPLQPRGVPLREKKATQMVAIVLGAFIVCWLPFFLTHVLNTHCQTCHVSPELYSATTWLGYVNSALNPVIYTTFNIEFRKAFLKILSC
Sequence of Vascular endothelial growth factor receptor 2 (P35968 whole entry): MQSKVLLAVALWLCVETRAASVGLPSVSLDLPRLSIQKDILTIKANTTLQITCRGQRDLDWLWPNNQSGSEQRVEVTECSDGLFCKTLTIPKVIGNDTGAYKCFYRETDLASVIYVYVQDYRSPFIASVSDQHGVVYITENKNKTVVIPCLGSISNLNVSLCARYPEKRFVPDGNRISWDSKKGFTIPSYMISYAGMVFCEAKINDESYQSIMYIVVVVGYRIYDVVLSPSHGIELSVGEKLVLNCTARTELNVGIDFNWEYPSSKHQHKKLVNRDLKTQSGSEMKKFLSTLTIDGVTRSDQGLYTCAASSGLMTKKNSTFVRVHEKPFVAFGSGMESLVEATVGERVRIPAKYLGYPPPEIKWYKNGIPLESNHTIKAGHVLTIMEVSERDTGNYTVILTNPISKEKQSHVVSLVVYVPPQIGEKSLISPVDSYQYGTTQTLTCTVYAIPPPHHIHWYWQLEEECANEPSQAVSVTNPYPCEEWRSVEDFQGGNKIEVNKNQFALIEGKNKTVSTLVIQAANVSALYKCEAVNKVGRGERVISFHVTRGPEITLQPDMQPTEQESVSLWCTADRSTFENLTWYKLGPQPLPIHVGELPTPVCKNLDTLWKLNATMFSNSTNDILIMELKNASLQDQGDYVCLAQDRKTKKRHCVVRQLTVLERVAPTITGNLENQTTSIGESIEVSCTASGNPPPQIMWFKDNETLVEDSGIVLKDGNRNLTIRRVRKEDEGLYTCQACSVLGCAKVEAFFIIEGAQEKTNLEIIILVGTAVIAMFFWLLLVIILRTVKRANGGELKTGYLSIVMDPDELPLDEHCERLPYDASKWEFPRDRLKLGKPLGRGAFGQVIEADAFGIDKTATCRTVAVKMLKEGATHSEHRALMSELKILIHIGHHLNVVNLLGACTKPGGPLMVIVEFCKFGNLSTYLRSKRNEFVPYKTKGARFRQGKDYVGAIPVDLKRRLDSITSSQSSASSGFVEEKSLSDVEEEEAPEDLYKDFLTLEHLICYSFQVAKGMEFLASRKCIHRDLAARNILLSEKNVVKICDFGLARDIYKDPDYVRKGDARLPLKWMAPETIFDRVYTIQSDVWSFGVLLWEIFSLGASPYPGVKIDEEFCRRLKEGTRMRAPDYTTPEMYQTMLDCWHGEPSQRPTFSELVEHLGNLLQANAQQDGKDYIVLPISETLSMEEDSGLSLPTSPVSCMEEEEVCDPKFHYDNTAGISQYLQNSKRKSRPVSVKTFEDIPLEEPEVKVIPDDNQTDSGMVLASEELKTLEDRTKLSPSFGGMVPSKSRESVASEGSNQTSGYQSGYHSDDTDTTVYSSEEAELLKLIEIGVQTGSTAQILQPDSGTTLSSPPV
Sequence of Sodium-dependent noradrenaline transporter (P23975 whole entry): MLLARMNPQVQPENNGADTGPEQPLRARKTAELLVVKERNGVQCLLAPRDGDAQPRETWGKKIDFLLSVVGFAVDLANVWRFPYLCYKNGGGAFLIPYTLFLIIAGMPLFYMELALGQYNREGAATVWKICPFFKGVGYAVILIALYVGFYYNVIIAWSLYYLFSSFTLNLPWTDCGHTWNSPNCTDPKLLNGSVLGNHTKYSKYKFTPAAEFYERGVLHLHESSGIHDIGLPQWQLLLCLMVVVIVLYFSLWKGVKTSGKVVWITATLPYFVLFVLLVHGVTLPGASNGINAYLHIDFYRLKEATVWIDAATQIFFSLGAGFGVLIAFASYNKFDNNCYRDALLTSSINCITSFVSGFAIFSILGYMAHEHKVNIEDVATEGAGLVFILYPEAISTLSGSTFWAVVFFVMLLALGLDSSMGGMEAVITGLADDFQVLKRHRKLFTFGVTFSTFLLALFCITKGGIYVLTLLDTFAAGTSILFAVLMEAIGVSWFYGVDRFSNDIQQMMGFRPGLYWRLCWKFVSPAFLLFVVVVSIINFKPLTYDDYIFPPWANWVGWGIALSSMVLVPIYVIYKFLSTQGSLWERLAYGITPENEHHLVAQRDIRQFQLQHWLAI
Sequence of Voltage-gated inwardly rectifying potassium channel KCNH2 (Q12809 whole entry): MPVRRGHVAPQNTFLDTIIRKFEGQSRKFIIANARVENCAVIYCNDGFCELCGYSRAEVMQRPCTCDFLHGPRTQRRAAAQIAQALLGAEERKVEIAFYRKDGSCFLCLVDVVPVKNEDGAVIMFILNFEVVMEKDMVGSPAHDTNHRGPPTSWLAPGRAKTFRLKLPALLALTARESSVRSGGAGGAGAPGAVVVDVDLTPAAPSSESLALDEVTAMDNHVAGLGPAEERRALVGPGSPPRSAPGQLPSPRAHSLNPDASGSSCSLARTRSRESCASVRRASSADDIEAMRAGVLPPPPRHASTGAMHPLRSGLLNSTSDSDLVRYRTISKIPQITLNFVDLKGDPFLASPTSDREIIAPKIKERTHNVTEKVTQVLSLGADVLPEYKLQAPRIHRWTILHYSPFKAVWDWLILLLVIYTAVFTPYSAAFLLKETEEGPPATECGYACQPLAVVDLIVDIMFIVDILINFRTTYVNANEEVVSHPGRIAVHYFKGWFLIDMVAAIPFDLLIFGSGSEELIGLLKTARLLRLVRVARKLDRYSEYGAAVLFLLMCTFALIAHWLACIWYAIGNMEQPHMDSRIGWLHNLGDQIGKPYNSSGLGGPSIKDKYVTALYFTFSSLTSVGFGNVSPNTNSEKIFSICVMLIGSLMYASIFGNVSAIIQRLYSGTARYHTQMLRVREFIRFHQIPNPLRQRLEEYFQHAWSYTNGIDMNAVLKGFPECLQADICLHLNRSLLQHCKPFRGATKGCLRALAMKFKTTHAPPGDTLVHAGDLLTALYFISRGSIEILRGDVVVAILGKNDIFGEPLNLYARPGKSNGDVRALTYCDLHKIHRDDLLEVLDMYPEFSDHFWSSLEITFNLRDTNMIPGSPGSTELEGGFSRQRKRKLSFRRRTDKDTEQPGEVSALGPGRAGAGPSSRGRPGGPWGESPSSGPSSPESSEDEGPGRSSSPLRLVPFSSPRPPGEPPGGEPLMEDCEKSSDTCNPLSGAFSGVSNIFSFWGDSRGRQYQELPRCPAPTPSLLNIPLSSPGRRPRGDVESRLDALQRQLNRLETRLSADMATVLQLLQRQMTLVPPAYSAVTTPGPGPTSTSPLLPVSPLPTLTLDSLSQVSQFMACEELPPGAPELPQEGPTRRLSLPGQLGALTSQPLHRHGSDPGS
Sequence of Prostaglandin G/H synthase 1 (P23219 whole entry): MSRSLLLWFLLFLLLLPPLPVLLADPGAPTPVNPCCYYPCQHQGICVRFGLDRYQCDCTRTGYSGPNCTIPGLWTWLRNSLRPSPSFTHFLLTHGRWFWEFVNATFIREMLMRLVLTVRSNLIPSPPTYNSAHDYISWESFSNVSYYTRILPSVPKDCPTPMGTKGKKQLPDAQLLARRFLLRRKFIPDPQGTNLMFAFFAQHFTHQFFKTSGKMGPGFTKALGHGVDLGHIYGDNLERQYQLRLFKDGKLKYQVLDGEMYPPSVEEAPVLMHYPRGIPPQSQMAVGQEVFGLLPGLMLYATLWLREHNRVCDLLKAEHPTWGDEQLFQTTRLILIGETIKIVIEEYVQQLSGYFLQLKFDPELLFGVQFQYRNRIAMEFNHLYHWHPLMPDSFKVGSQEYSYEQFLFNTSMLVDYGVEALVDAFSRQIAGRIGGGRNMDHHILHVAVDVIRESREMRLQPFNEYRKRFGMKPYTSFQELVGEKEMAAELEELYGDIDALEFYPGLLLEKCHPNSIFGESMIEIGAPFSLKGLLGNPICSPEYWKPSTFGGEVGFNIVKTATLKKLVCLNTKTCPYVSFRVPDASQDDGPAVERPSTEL
Sequence of 5-hydroxytryptamine receptor 2B (P41595 whole entry): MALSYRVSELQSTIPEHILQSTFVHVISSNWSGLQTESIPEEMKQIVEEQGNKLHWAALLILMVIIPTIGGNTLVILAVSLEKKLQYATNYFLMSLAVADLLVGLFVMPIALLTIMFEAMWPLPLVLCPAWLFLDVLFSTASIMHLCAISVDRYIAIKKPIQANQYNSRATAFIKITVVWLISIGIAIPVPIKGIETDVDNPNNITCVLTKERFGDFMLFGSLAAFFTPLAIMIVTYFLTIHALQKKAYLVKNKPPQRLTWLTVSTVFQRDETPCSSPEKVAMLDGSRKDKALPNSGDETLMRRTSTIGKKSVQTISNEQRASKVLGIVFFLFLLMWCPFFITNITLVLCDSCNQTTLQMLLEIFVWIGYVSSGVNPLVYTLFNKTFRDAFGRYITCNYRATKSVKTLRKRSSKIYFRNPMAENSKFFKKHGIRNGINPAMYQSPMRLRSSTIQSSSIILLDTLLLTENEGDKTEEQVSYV

As to `N[C@@H](Cc1ccc(N(CCCl)CCCl)cc1)C(=O)O`, the AC50 is 16.9 µM in test [1]; above 30 µM in test [2]; above 30 µM in test [3]; above 30 µM in [4]; above 30 µM in [5]; 20 µM in test [6]. Besides, the AC50 in [7] was 24.8 µM; in test [8], above 30 µM; in test [9] it was 4.8 µM; in test [10], above 30 µM; in [11], above 30 µM; in [12] it was above 30 µM. The AC50 in [13] and in [14] was above 30 µM throughout.
Consider `OCc1ccccc1` [BENZYL ALCOHOL], for which the AC50 in test [1], in [2], in test [3], in test [4], in test [5] and in [6] was above 30 µM each time. Also, the AC50 in [7], in test [8], in test [9], in [10], in test [11] and in test [12] was above 30 µM throughout. The AC50 in test [15], in test [13] and in [14] was above 30 µM throughout.
On to `C[C@H]1C[C@H]2[C@@H]3CCC4=CC(=O)C=C[C@]4(C)[C@@]3(F)[C@@H](O)C[C@]2(C)[C@@]1(O)C(=O)CO` [BETAMETHASONE], for which the AC50 in test [1], in test [2], in [3], in test [4], in test [5] and in test [6] was above 30 µM in each case. Moreover, the half-maximal activity concentration (AC50) in [7], in test [8], in test [9], in [10], in test [11] and in test [12] was above 30 µM each time. Also, the AC50 in test [13] and in [14] was above 30 µM throughout.
`CC(=O)OCC(=O)[C@@]1(OC(C)=O)[C@@H](C)C[C@H]2[C@@H]3C[C@H](F)C4=CC(=O)C=C[C@]4(C)[C@@]3(F)[C@@H](O)C[C@@]21C` [DIFLORASONE DIACETATE]: the AC50 in test [1], in [2], in test [3], in test [4], in test [5] and in [6] was above 30 µM throughout. Further, the AC50 in [7], in test [8], in test [9], in [10], in test [11] and in test [12] was above 30 µM each time. For the same compound, the AC50 in test [13] and in [14] was above 30 µM throughout.
With `COC(=O)Nc1nc2cc(C(=O)c3ccc(F)cc3)ccc2[nH]1` [FLUBENDAZOLE], the AC50 in test [1] was above 30 µM; in test [2], above 30 µM; in [3], above 30 µM; in test [4] it was above 30 µM; in test [5], above 10 µM; in [6] it was above 30 µM. Besides, the AC50 in test [7] was above 30 µM; in test [8], 2.17 µM; in [9], above 30 µM; in test [10] it was above 30 µM; in test [11] it was above 30 µM; in test [12], 0.386 µM. The AC50 in test [15] is above 30 µM; in test [13] it was above 30 µM; in test [14], 8.69 µM.
Take `Cc1ccc(Cl)c(Nc2ccccc2C(=O)O)c1Cl` [MECLOFENAMIC ACID]: the AC50 in [1], in [2], in [3], in [4], in test [5] and in test [6] was above 30 µM in each case. Also, the AC50 in test [7] was above 30 µM; in [8] it was 0.0142 µM; in [9] it was above 30 µM; in [10], above 30 µM; in test [11] it was above 30 µM; in test [12] it was above 30 µM. Besides, the AC50 is above 30 µM in [15], 20 µM in test [13] and 29.6 µM in test [14].
For `C#C[C@]1(OC(C)=O)CC[C@H]2[C@@H]3CCC4=CC(=O)CC[C@@H]4[C@H]3CC[C@@]21C` [NORETHINDRONE ACETATE], the half-maximal activity concentration (AC50) was above 30 µM in [1]; above 30 µM in [2]; above 30 µM in [3]; above 30 µM in [4]; 19.1 µM in [5]; above 30 µM in test [6]. The AC50 in test [7], in test [8], in test [9], in [10], in test [11] and in [12] was above 30 µM throughout. Moreover, the AC50 in test [13] was 9.74 µM; in [14] it was 0.838 µM.
Take `CC(C)N1CCN(c2ccc(OCC3COC(Cn4cncn4)(c4ccc(Cl)cc4Cl)O3)cc2)CC1` (centres undefined) [TERCONAZOLE]: the AC50 in [1] was 7.14 µM; in test [2], above 30 µM; in test [3] it was above 30 µM; in [4] it was above 30 µM; in [5], above 30 µM; in [6], 16.5 µM. Also, the AC50 in test [7] was 7.12 µM; in test [8], above 30 µM; in test [9], 6.9 µM; in test [10], above 30 µM; in test [11], above 30 µM; in [12], above 30 µM. Besides, the AC50 in [15] and in test [14] was above 30 µM each time.
Consider `CC(CN(C)C)CN1c2ccccc2CCc2ccccc21` (centres undefined) [TRIMIPRAMINE], for which the AC50 was 10.9 µM in test [1]; above 30 µM in [2]; above 30 µM in [3]; above 30 µM in [4]; 18.5 µM in [5]; above 30 µM in test [6]. Further, the AC50 is 0.0178 µM in test [7]; above 30 µM in test [8]; 8.9 µM in test [9]; above 30 µM in test [10]; 20.1 µM in [11]; above 30 µM in test [12]. Further, the AC50 in test [15] and in [14] was above 30 µM throughout.
